Test results published in patent publication US20230104690A1, “MATRIX METALLOPROTEINASE INHIBITORS (MMPIs)” (Brandon University, priority 2020, published 2023).
Entries after “also recorded” stand apart in the source; their conditions may differ.

Columns and labels:
[1] = biological target: T1, MMP3 (Rattus norvegicus, UniProt P03957); test: NFF-3 fluorescence assay in C6-13 (C6-Cx43) glioma conditioned media; assay type: biochemical; conditions: 50 μM and 100 μM, over six hours, relative to untreated controls
T1 construct: endogenous in cells; host or cells: C6-13 (C6 glioma clone stably expressing Cx43), conditioned serum-free medium
T1 sequence (P03957 98-475): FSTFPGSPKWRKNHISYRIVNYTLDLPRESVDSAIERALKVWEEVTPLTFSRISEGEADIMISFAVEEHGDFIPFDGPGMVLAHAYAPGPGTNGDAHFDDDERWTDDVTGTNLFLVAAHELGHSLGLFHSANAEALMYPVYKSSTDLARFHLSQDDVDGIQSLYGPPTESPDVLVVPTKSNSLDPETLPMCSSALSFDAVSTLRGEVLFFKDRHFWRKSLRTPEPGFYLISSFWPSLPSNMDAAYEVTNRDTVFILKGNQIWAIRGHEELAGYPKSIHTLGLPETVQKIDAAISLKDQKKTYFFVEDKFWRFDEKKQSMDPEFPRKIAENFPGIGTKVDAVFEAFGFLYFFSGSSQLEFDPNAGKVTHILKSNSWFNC
Method: Glioma Cell Culture. […] Anal Bioanal Chem 2010, 398 (1), 477-87). […] Zymography. […] SDS-PAGE/Western Blotting. Conditioned media was collected and chilled on ice. […] Proteins were pelleted by centrifugation (12 minutes, 4800 g). Proteins were suspended in SDS-PAGE loading buffer. […] NFF-3 Fluorescence Assay. […] After conditioning, the media was collected. Each experimental condition had its own control condition. […] The experiment was conducted at 37° C. […] The docking of MMP Inhibitors.
The synthesis of the MMP Inhibitors and NFF3 analysis. The leucine-tryptophan (Leu-Trp) backbone, AP-1, and AP-2 were synthesized. All synthesized compounds were analyzed by mass spectrometry (FIG. 3). The NFF-3 assay was used to determine the biological inhibition of MMP-3 activity for ilomastat and synthesized compounds, Leu-Trp, and AP-1 relative to untreated controls. […] Linear responses of MMP3 activity was robustly measured from about 30 to about 300 minutes. All compounds were tested at a concentration of 50 μM and 100 μM, and compared to determine MMP3 suppression. From FIG. 6, concentration dependent inhibition was observed.

[2] = biological target: T1, MMP3; test: Gelatin zymography of C6-13 conditioned media; assay type: cell-based; conditions: ilomastat 0-100 uM, 0.1% gelatin
Description: (§1) Glioma Cell Culture. The C6 glioma line (American Type Culture Collection, ATCC) maintains many characteristics of GBM including cancer stem cell behavior ability to generate GBMs in rats upon injection in the brain (Grobben, B.; De Deyn, P. P.; Slegers, H., Rat C6 glioma as experimental model system for the study of glioblastoma growth and invasion. Cell Tissue Res 2002, 310 (3), 257-70; Zheng, X.; Shen, G.; Yang, X.; Liu, W., Most C6 cells are cancer stem cells: evidence from clonal and population analyses. Cancer Res 2007, 67 (8), 3691-7; and Beljebbar, A.; Dukic, S.; Amharref, N.; Manfait, M., Ex vivo and in vivo diagnosis of C6 glioblastoma development by Raman spectroscopy coupled to a microprobe. Anal Bioanal Chem 2010, 398 (1), 477-87). […] Cell Mol Neurobiol 1992, 12 (2), 163-75.) Glioma cells were maintained at 37° C., 95% air and 5% CO2 in a humidified incubator. Cells were cultivated in high glucose DMEM (4.0 g/L, ThermoFisher Scientific) containing L-glutamine (4.0 mM), antibiotics (penicillin, 100 IU/mL; streptomycin, 100 μg/mL) and 10% fetal bovine serum (FBS; Gibco). For collection of conditioned media, cells were plated in 6-well plate (200,000 cells/well) and grown to 80% confluency over the course of 3 days. […] Protein concentration was determined by BCA assay and samples suspended in SDS loading buffer (no DTT and without boiling). […]

[3] = system: C6 glioma cells; conditions: ≤100 uM, propidium iodide stain, data not shown
Description: as §1

`CNC(=O)[C@H](Cc1c[nH]c2ccccc12)NC(=O)[C@@H](CC(=O)NO)CC(C)C` [Ilomastat] was tested, and the “Inhibition of MMP-3 activity (NFF-3 fluorescence)” value [1] was “perform better than Leu-Trp at inhibiting MMP-3”, the “Loss of MMP3 activity (zymography)” value [2] was “concentration-dependent inhibition of secreted MMP3; also recorded: dose-dependent loss of MMP3 activity” and the Cell death [3] was less than 1%.
`CC(C)C[C@H](N)C(=O)N[C@@H](Cc1c[nH]c2ccccc12)C(=O)O` [Leu-Trp] was tested, and the “Inhibition of MMP-3 activity (NFF-3 fluorescence)” value [1] was “can act as a competitive inhibitor”.
